{
  "source": "ChEMBL document CHEMBL4308841",
  "about": "“Synthesis, in vitro antiproliferative activity, and kinase inhibitory effects of pyrazole-containing diarylureas and diarylamides” (Eur J Med Chem, 2018)",
  "data": [
    {"tested_on": "MOLT-4", "test": "Growth inhibition of human MOLT4 cells assessed as cell growth at 10 uM incubated for 48 hrs by sulforhodamine B assay relative to control", "format": "functional", "details": "MOLT-4, 48 h, read-out: Activity", "units": {"growth at 10 µM": "%"}, "values": [
      {"smiles": "COc1cc(Cl)cc(-c2nn(-c3cccc(NC(=O)Nc4cccc(C(F)(F)F)c4)c3)cc2-c2ccncc2)c1", "growth at 10 µM": -9.16}
    ]},
    {"tested_on": "HOP-62", "test": "Growth inhibition of human HOP62 cells assessed as cell growth at 10 uM incubated for 48 hrs by sulforhodamine B assay relative to control", "format": "functional", "details": "HOP-62, 48 h, read-out: Activity", "units": {"growth at 10 µM": "%"}, "values": [
      {"smiles": "COc1cc(Cl)cc(-c2nn(-c3cccc(NC(=O)Nc4cccc(C(F)(F)F)c4)c3)cc2-c2ccncc2)c1", "growth at 10 µM": 15.5}
    ]},
    {"tested_on": "NCI-H226", "test": "Growth inhibition of human NCI-H226 cells assessed as cell growth at 10 uM incubated for 48 hrs by sulforhodamine B assay relative to control", "format": "functional", "details": "NCI-H226, 48 h, read-out: Activity", "units": {"growth at 10 µM": "%"}, "values": [
      {"smiles": "COc1cc(Cl)cc(-c2nn(-c3cccc(NC(=O)Nc4cccc(C(F)(F)F)c4)c3)cc2-c2ccncc2)c1", "growth at 10 µM": 3.94}
    ]},
    {"tested_on": "NCI-H460", "test": "Growth inhibition of human NCI-H460 cells assessed as cell growth at 10 uM incubated for 48 hrs by sulforhodamine B assay relative to control", "format": "functional", "details": "NCI-H460, 48 h, read-out: Activity", "units": {"growth at 10 µM": "%"}, "values": [
      {"smiles": "COc1cc(Cl)cc(-c2nn(-c3cccc(NC(=O)Nc4cccc(C(F)(F)F)c4)c3)cc2-c2ccncc2)c1", "growth at 10 µM": -6.11}
    ]},
    {"tested_on": "HCT-116", "test": "Growth inhibition of human HCT116 cells assessed as cell growth at 10 uM incubated for 48 hrs by sulforhodamine B assay relative to control", "format": "functional", "details": "HCT-116, 48 h, read-out: Activity", "units": {"growth at 10 µM": "%"}, "values": [
      {"smiles": "COc1cc(Cl)cc(-c2nn(-c3cccc(NC(=O)Nc4cccc(C(F)(F)F)c4)c3)cc2-c2ccncc2)c1", "growth at 10 µM": 5.07}
    ]},
    {"tested_on": "LOX IMVI", "test": "Growth inhibition of human LOXIMVI cells assessed as cell growth at 10 uM incubated for 48 hrs by sulforhodamine B assay relative to control", "format": "functional", "details": "read-out: Activity", "units": {"growth at 10 µM": "%"}, "values": [
      {"smiles": "COc1cc(Cl)cc(-c2nn(-c3cccc(NC(=O)Nc4cccc(C(F)(F)F)c4)c3)cc2-c2ccncc2)c1", "growth at 10 µM": 4.64}
    ]},
    {"tested_on": "MDA-MB-435", "test": "Growth inhibition of human MDA-MB-435 cells assessed as cell growth at 10 uM incubated for 48 hrs by sulforhodamine B assay relative to control", "format": "functional", "details": "MDA-MB-435, 48 h, read-out: Activity", "units": {"growth at 10 µM": "%"}, "values": [
      {"smiles": "COc1cc(Cl)cc(-c2nn(-c3cccc(NC(=O)Nc4cccc(C(F)(F)F)c4)c3)cc2-c2ccncc2)c1", "growth at 10 µM": -20.9}
    ]},
    {"tested_on": "UACC-257", "test": "Growth inhibition of human UACC257 cells assessed as cell growth at 10 uM incubated for 48 hrs by sulforhodamine B assay relative to control", "format": "functional", "details": "UACC-257, 48 h, read-out: Activity", "units": {"growth at 10 µM": "%"}, "values": [
      {"smiles": "COc1cc(Cl)cc(-c2nn(-c3cccc(NC(=O)Nc4cccc(C(F)(F)F)c4)c3)cc2-c2ccncc2)c1", "growth at 10 µM": -11.7}
    ]},
    {"tested_on": "UACC-62", "test": "Growth inhibition of human UACC62 cells assessed as cell growth at 10 uM incubated for 48 hrs by sulforhodamine B assay relative to control", "format": "functional", "details": "UACC-62, 48 h, read-out: Activity", "units": {"growth at 10 µM": "%"}, "values": [
      {"smiles": "COc1cc(Cl)cc(-c2nn(-c3cccc(NC(=O)Nc4cccc(C(F)(F)F)c4)c3)cc2-c2ccncc2)c1", "growth at 10 µM": -11.5}
    ]},
    {"tested_on": "IGROV-1", "test": "Growth inhibition of human IGROV1 cells assessed as cell growth at 10 uM incubated for 48 hrs by sulforhodamine B assay relative to control", "format": "functional", "details": "IGROV-1, 48 h, read-out: Activity", "units": {"growth at 10 µM": "%"}, "values": [
      {"smiles": "COc1cc(Cl)cc(-c2nn(-c3cccc(NC(=O)Nc4cccc(C(F)(F)F)c4)c3)cc2-c2ccncc2)c1", "growth at 10 µM": 28.9}
    ]},
    {"tested_on": "OVCAR-3", "test": "Growth inhibition of human OVCAR3 cells assessed as cell growth at 10 uM incubated for 48 hrs by sulforhodamine B assay relative to control", "format": "functional", "details": "OVCAR-3, 48 h, read-out: Activity", "units": {"growth at 10 µM": "%"}, "values": [
      {"smiles": "COc1cc(Cl)cc(-c2nn(-c3cccc(NC(=O)Nc4cccc(C(F)(F)F)c4)c3)cc2-c2ccncc2)c1", "growth at 10 µM": -0.41}
    ]},
    {"tested_on": "NCI/ADR-RES", "test": "Growth inhibition of human NCI/ADR-RES cells assessed as cell growth at 10 uM incubated for 48 hrs by sulforhodamine B assay relative to control", "format": "functional", "details": "read-out: Activity", "units": {"growth at 10 µM": "%"}, "values": [
      {"smiles": "COc1cc(Cl)cc(-c2nn(-c3cccc(NC(=O)Nc4cccc(C(F)(F)F)c4)c3)cc2-c2ccncc2)c1", "growth at 10 µM": 3.58}
    ]},
    {"tested_on": "SK-OV-3", "test": "Growth inhibition of human SKOV3 cells assessed as cell growth at 10 uM incubated for 48 hrs by sulforhodamine B assay relative to control", "format": "functional", "details": "SK-OV-3, 48 h, read-out: Activity", "units": {"growth at 10 µM": "%"}, "values": [
      {"smiles": "COc1cc(Cl)cc(-c2nn(-c3cccc(NC(=O)Nc4cccc(C(F)(F)F)c4)c3)cc2-c2ccncc2)c1", "growth at 10 µM": 14.2}
    ]},
    {"tested_on": "786-0", "test": "Growth inhibition of human 786-0 cells assessed as cell growth at 10 uM incubated for 48 hrs by sulforhodamine B assay relative to control", "format": "functional", "details": "786-0, 48 h, read-out: Activity", "units": {"growth at 10 µM": "%"}, "values": [
      {"smiles": "COc1cc(Cl)cc(-c2nn(-c3cccc(NC(=O)Nc4cccc(C(F)(F)F)c4)c3)cc2-c2ccncc2)c1", "growth at 10 µM": 13.2}
    ]},
    {"tested_on": "ACHN", "test": "Growth inhibition of human ACHN cells assessed as cell growth at 10 uM incubated for 48 hrs by sulforhodamine B assay relative to control", "format": "functional", "details": "read-out: Activity", "units": {"growth at 10 µM": "%"}, "values": [
      {"smiles": "COc1cc(Cl)cc(-c2nn(-c3cccc(NC(=O)Nc4cccc(C(F)(F)F)c4)c3)cc2-c2ccncc2)c1", "growth at 10 µM": 5.44}
    ]},
    {"tested_on": "CAKI-1", "test": "Growth inhibition of human Caki1 cells assessed as cell growth at 10 uM incubated for 48 hrs by sulforhodamine B assay relative to control", "format": "functional", "details": "CAKI-1, 48 h, read-out: Activity", "units": {"growth at 10 µM": "%"}, "values": [
      {"smiles": "COc1cc(Cl)cc(-c2nn(-c3cccc(NC(=O)Nc4cccc(C(F)(F)F)c4)c3)cc2-c2ccncc2)c1", "growth at 10 µM": 16.1}
    ]},
    {"tested_on": "RXF 393", "test": "Growth inhibition of human RXF393 cells assessed as cell growth at 10 uM incubated for 48 hrs by sulforhodamine B assay relative to control", "format": "functional", "details": "RXF 393, 48 h, read-out: Activity", "units": {"growth at 10 µM": "%"}, "values": [
      {"smiles": "COc1cc(Cl)cc(-c2nn(-c3cccc(NC(=O)Nc4cccc(C(F)(F)F)c4)c3)cc2-c2ccncc2)c1", "growth at 10 µM": 11.8}
    ]},
    {"tested_on": "SN12C", "test": "Growth inhibition of human SN12C cells assessed as cell growth at 10 uM incubated for 48 hrs by sulforhodamine B assay relative to control", "format": "functional", "details": "read-out: Activity", "units": {"growth at 10 µM": "%"}, "values": [
      {"smiles": "COc1cc(Cl)cc(-c2nn(-c3cccc(NC(=O)Nc4cccc(C(F)(F)F)c4)c3)cc2-c2ccncc2)c1", "growth at 10 µM": 13.9}
    ]},
    {"tested_on": "UO-31", "test": "Growth inhibition of human UO31 cells assessed as cell growth at 10 uM incubated for 48 hrs by sulforhodamine B assay relative to control", "format": "functional", "details": "UO-31, 48 h, read-out: Activity", "units": {"growth at 10 µM": "%"}, "values": [
      {"smiles": "COc1cc(Cl)cc(-c2nn(-c3cccc(NC(=O)Nc4cccc(C(F)(F)F)c4)c3)cc2-c2ccncc2)c1", "growth at 10 µM": -4.59}
    ]}
  ]
}
